Assay results as given in PubChem BioAssay (NCI).
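1) Cells in 96-well plates. 2) Compound, 48 h, 5 concentrations. 3) Linear interpolation between surrounding doses. 4) Unreached endpoint = highest concentration. The concentration for full growth arrest is given as TGI.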

How the values were obtained:
Assay in all cases: NCI anticancer screen, dose series, 48 h
SF-295 CNS = system: SF-295 CNS
MALME-3M melanoma = system: MALME-3M melanoma
K-562 leukemia = system: K-562 leukemia
UACC-62 melanoma = system: UACC-62 melanoma
NCI-H522 lung = system: NCI-H522 lung
HCT-15 colon = system: HCT-15 colon
A549 NSCLC = system: A549 NSCLC
OVCAR-5 ovarian = system: OVCAR-5 ovarian
SNB-75 CNS = system: SNB-75 CNS
BT-549 breast = system: BT-549 breast
HOP-92 NSCLC = system: HOP-92 NSCLC

Compound	TGI (SF-295 CNS) [µM]	TGI (MALME-3M melanoma) [µM]	TGI (K-562 leukemia) [µM]	TGI (UACC-62 melanoma) [µM]	TGI (NCI-H522 lung) [µM]	TGI (HCT-15 colon) [µM]	TGI (A549 NSCLC) [µM]	TGI (OVCAR-5 ovarian) [µM]	TGI (SNB-75 CNS) [µM]	TGI (BT-549 breast) [µM]	TGI (HOP-92 NSCLC) [µM]
N#CCCC(C#N)(C#N)CCC#N	> 100	> 100	> 100	> 100	> 100	> 100	> 100				
CCOC(=O)/C(C1=NCCN1C)=C(\O)c1ccccc1	> 100	> 100	> 100	> 100	> 100	> 100	> 100	> 100			
C1=NN2C(c3ccccc3)=NOC2C2C(c3ccccc3)=NOC12 (stereo unspecified)	> 100	> 100		> 100	> 100	> 100	> 100	> 100	> 100	> 100	
c1cc2c(cc1C1OCC3C(c4ccc5c(c4)OCO5)OCC13)OCO2 (stereo unspecified)	> 100	> 100	> 100	> 100	> 100	> 100	> 100	> 100	> 100		> 100
C#CN1C(=O)c2c(c(-c3ccccc3)c(-c3ccc(Oc4ccc(-c5c(-c6ccccc6)c6c(c(-c7ccccc7)c5-c5ccccc5)C(=O)N(C#C)C6=O)cc4)cc3)c(-c3ccccc3)c2-c2ccccc2)C1=O	> 100	> 100	> 100	> 100	> 100	> 100	> 100	> 100	> 100		> 100
COc1ccccc1N1CCN(S(=O)(=O)c2ccc(Cl)cc2)C1=N	> 100		> 100	> 100	> 100	> 100	> 100	> 100	> 100	> 100	
O=C(O)C12C3CCC(C3)C1(C(=O)O)C1CCC2C1 (stereo unspecified)	> 100	> 100	> 100	> 100	54.9	> 100	> 100	> 100	> 100		> 100
O=C(c1ccccc1)n1cc(/C=C/[N+](=O)[O-])c2ccccc21	> 100	96.7	47.7	36.9	28.8	39.8	> 100	> 100	82.1		54.1
CC(C)CCNC(=O)c1ccc(CNC(=O)/C=C/c2ccc3ccccc3c2)cc1	> 100		> 100	> 100		> 100	> 100	> 100	> 100		> 100
Cc1c(-c2coc(-c3ccc([N+](=O)[O-])cc3)n2)c(=O)n(-c2ccccc2)n1C	> 100	> 100		> 100	> 100	> 100	> 100	> 100	> 100		> 100
CC1(C)N=C(C(N)=O)c2ncn(Cc3ccccc3)c2N1	> 100	> 100	> 100	> 100	> 100	> 100	> 100	> 100	> 100		> 100
COc1ccc(S(=O)(=O)N/N=C(\C)CN2C(=O)c3ccccc3C2=O)cc1OC	> 100	> 100	> 100	> 100	> 100	> 100	> 100	> 100	> 100		> 100
O=c1[nH]c(=O)n([C@H]2C[C@@H](CO)[C@@H](O)C2)cc1I		> 100	> 100	> 100	> 100	> 100	> 100	> 100	> 100		> 100
O=[N+]([O-])C(C(Cl)=C(Cl)Cl)=C(N1CCCCC1)N1CCCCC1	> 100	> 100	> 100	> 100		> 100	> 100	> 100	> 100	> 100	
Cc1n[nH]c(=O)n1/N=C/c1ccco1	> 100	> 100	> 100	> 100		> 100	> 100	> 100	> 100	> 100	
CNC(=O)O/N=C1\N(C)CN(c2ccccc2)C12CCN(CCCC(=O)c1ccc(F)cc1)CC2	> 100	90.8	> 100	> 100	> 100	> 100	> 100	> 100	24.3		> 100
COP12(OC)NC(=O)OC1(C(F)(F)F)c1ccccc1O2 (stereo unspecified)	> 100	> 100	> 100	> 100	> 100	> 100	> 100		> 100		

Compound	TGI (SF-295 CNS) [µM]	TGI (MALME-3M melanoma) [µM]	TGI (K-562 leukemia) [µM]	TGI (UACC-62 melanoma) [µM]	TGI (NCI-H522 lung) [µM]	TGI (HCT-15 colon) [µM]	TGI (A549 NSCLC) [µM]	TGI (OVCAR-5 ovarian) [µM]	TGI (SNB-75 CNS) [µM]	TGI (BT-549 breast) [µM]	TGI (HOP-92 NSCLC) [µM]
COc1cc(C2C(C(=O)NCc3ccccc3)=C(C)NC(C)=C2C(=O)NCc2ccccc2)ccc1O	> 100	> 100	> 100	> 100		> 100	> 100	> 100	> 100		89.2
O=C1CCC(=O)c2ccccc2N1	> 100	> 100	> 100		> 100	> 100	> 100	> 100	> 100		> 100
CN1CCS(=O)(=O)NC(Cc2ccccc2)C(=O)N2CCCC2C1=O (stereo unspecified)	> 100	> 100	> 100	> 100	> 100	> 100	> 100	> 100	> 100		
O=C1C(Cl)C(c2ccc(O)cc2)N1n1cnc2ccccc2c1=O (stereo unspecified)	> 100	> 83.9	> 100	48.4	32.6	> 100	> 100	> 100	> 100		> 100
COc1ccc(/C(C)=C2\CCCN(Cc3ccccc3)C2)cc1	35.1	34.8	63.4	57.9	26.4	46.1	86	> 100	73.1		60.4
O=c1cccccc1[O-].O=c1cccccc1[O-].O=c1cccccc1[O-].[Nd+3]	> 100	> 100	> 100	88	74.4	> 100	> 100	> 100			> 100
CN(C)CC1(Cc2ccccc2)CC/C(=C\c2ccccc2)C1=O (stereo unspecified)	> 100	> 100	> 100	> 100	30.1	42.1	> 100	> 100	> 100		> 100
NNC(=O)/C(NC(=O)c1ccccc1)=C(\N)c1cccc([N+](=O)[O-])c1	> 100	> 100	> 100	> 100	> 100	> 100	> 100	> 100	> 100		> 100
COC(=O)C(=O)C(C(=O)OC)C(=O)C(=O)Nc1cc(Cl)c(C)cc1S(=O)(=O)O (stereo unspecified)	> 100	> 100	> 100	> 100	> 100	> 100	> 100	> 100	> 100		
CCOC(=O)c1ccc(N=C2Sc3nc4ccccc4n3C2=Nc2ccc(C(=O)OCC)cc2)cc1	37.3	51.8		54.4	> 100	> 100	69.8	> 100			35.9
c1ccc2cc(C3NCCc4[nH]cnc43)ccc2c1 (stereo unspecified)	> 100		> 100	> 100	> 100	> 100	> 100	> 100	> 100		> 100
CN1CCCS/C1=C1/SC(=S)N(c2ccccc2)C1=O	> 100	> 100	> 100	> 100	> 100	> 100	> 100	> 100	> 100		> 100
N#Cc1ccc(C2OCC3CC=CCC3CO2)cc1 (stereo unspecified)	> 100	> 100	> 100	> 100	> 100	> 100	> 100	> 100	> 100		
CCC1(c2ccc(OC)c(OC)c2)CCN(S(=O)(=O)c2ccc(C)cc2)C1 (stereo unspecified)	> 100		> 10	> 100	> 100	> 100	> 100	> 100	> 100	> 100	
CCC1=CC(OCc2ccccc2)C(CCN(Cc2ccccc2)C(=O)OCc2ccccc2)C1 (stereo unspecified)	35.3	30.1	> 100	24.8	25.9	29.1	32.1	36.9	22.6		27
COc1cc2ccnc(C#N)c2cc1OCc1ccccc1	> 100	> 100	> 100		> 100	> 100	> 100	> 100	66.3		
CN1N=C(c2ccncc2)OC1c1cccc(F)c1 (stereo unspecified)	> 100		> 100	> 100	> 100	> 100	> 100	> 100	> 100		
